According to patent US12239134B2, “Plant antimicrobial compositions including an emulsifier and/or ozone and methods of use” (Arizona Board of Regents on Behalf of The University of …, priority 2018, dated 2025):
“And” between values parts separate entries of the source, which are not always exact repeats. Equal entries are not always repeated.

Key:
[1] = system: Escherichia coli K-12 ATCC 25253; format: cell-based
[2] = system: Salmonella Newport; test: Biofilm formation on food contact surface coupons, direct plating; format: cell-based, Salmonella enterica; conditions: two-minute treatment
Method: A protocol based on direct plating was also evaluated for testing the biofilm formation by Salmonella or L. monocytogenes. Biofilms were formed on three different food contact surface coupons (HDPE, Buna-N rubber, and 316 stainless steel) for up to 3 days in 35 mm mini-petri dishes. Biofilms were formed using a 1:10 diluted TSB solution (10 mL) with either S. enterica or L. monocytogenes inoculum (100 μL). The diluted TSB was changed every 16-18 hours with new 1:10 diluted TSB (10 mL). Coupons were removed for sampling and enumeration of strongly attached bacteria at three different time points (Day 0, 1, and 3). The coupons were rinsed with deionized water five times to remove planktonic cells. Then the coupons were immersed in 10 mL of BPW. The coupons were sonicated for 2 minutes using different settings (Tables 11 and 12) for each organism. After sonication, the solution was serially diluted and plated on Tryptic Soy Agar (TSA). Plates were incubated at 37° C. for 24-48 hours. The colonies were counted and the colony forming units were determined for the various sonication settings, so that the appropriate setting with the most recovery could be determined. […] These settings were used in further experiments to recover the bacterial cells from coupons during sampling and enumeration (by spread plating) of the bacteria in biofilms.
The reduction in bacterial biofilm formation was also tested using a direct plating method. Biofilms were formed on six different food contact surface coupons (HDPE, Buna-N rubber, PC, PVC, and stainless steel 304 and 316) in separate 35 mm mini-petri dishes and evaluated at three different time points (Day 0, 1, and 3). Biofilms were formed using a 1:10 diluted TSB solution (10 mL) with either S. enterica or L. monocytogenes inoculum (100 μL). The coupons were also washed and treated with antimicrobial solutions containing the plant-based emulsifier and the essential oil/plant extracts at various concentrations. The diluted TSB was changed every 16-18 hours with new 1:10 diluted TSB (10 mL). The coupons were rinsed in the antimicrobial solution before adding them to the petri dishes containing the fresh, diluted TSB. After their specific time points, coupons were removed aseptically using sterile forceps from the petri dish. The coupons were rinsed by submerging in 25 mL of sterile deionized H2O and swirled five times to remove planktonic cells. After rinsing, they were placed into a new petri dish immersed in 10 mL of BPW. The coupons were sonicated for 2 minutes on ice using different settings for each organism. After sonication, the sonicated solution was serially diluted using 0.1% peptone water and spread plated on TSA in duplicate. Plates were incubated overnight at 37° C. for 24-48 hours, after which, the colonies were counted, to establish the efficacy of the antimicrobial solutions (Tables 17-25).

## OO [3% hydrogen peroxide, hydrogen peroxide]
[1]
  Bacterial reductions on spinach samples after sanitizer treatments: 0.8-1.2 Log CFU/g and 1.0-1.3 Log CFU/g
  log reduction of E. coli K-12 on spinach: 0.8-1.2 log and 1.0-1.3 log

## O=CC=Cc1ccccc1 [Cinnamaldehyde, cinnamaldehyde]
[2]; 0.5% with 0.0001% saponin microemulsion, Day 0, 304 SS
  Survivors of Salmonella Newport on food contact surface: 4.31 Log CFU/mL
[2]; 0.5% with 0.0001% saponin microemulsion, Day 0, 316 SS
  Survivors of Salmonella Newport on food contact surface: 4.30 Log CFU/mL
[2]; 0.5% with 0.0001% saponin microemulsion, Day 0, Buna N
  Survivors of Salmonella Newport on food contact surface: 4.23 Log CFU/mL
[2]; 0.5% with 0.0001% saponin microemulsion, Day 0, HDPE
  Survivors of Salmonella Newport on food contact surface: 4.27 Log CFU/mL
[2]; 0.5% with 0.0001% saponin microemulsion, Day 0, PC
  Survivors of Salmonella Newport on food contact surface: 4.06 Log CFU/mL
[2]; 0.5% with 0.0001% saponin microemulsion, Day 0, PVC
  Survivors of Salmonella Newport on food contact surface: 3.93 Log CFU/mL
[2]; 0.5% with 0.0001% saponin microemulsion, Day 1, 304 SS
  Survivors of Salmonella Newport on food contact surface: 4.45 Log CFU/mL
[2]; 0.5% with 0.0001% saponin microemulsion, Day 1, 316 SS
  Survivors of Salmonella Newport on food contact surface: 4.48 Log CFU/mL
[2]; 0.5% with 0.0001% saponin microemulsion, Day 1, Buna N
  Survivors of Salmonella Newport on food contact surface: 4.87 Log CFU/mL
[2]; 0.5% with 0.0001% saponin microemulsion, Day 1, HDPE
  Survivors of Salmonella Newport on food contact surface: 4.24 Log CFU/mL
[2]; 0.5% with 0.0001% saponin microemulsion, Day 1, PC
  Survivors of Salmonella Newport on food contact surface: 4.20 Log CFU/mL
[2]; 0.5% with 0.0001% saponin microemulsion, Day 1, PVC
  Survivors of Salmonella Newport on food contact surface: 4.36 Log CFU/mL
[2]; 0.5% with 0.0001% saponin microemulsion, Day 3, 304 SS
  Survivors of Salmonella Newport on food contact surface: 4.39 Log CFU/mL
[2]; 0.5% with 0.0001% saponin microemulsion, Day 3, 316 SS
  Survivors of Salmonella Newport on food contact surface: 4.26 Log CFU/mL
[2]; 0.5% with 0.0001% saponin microemulsion, Day 3, Buna N
  Survivors of Salmonella Newport on food contact surface: 4.34 Log CFU/mL
[2]; 0.5% with 0.0001% saponin microemulsion, Day 3, HDPE
  Survivors of Salmonella Newport on food contact surface: 3.24 Log CFU/mL
[2]; 0.5% with 0.0001% saponin microemulsion, Day 3, PC
  Survivors of Salmonella Newport on food contact surface: 3.75 Log CFU/mL
[2]; 0.5% with 0.0001% saponin microemulsion, Day 3, PVC
  Survivors of Salmonella Newport on food contact surface: 4.21 Log CFU/mL
[2]; 0.7% with 0.0001% saponin microemulsion, Day 0, 304 SS
  Survivors of Salmonella Newport on food contact surface: 4.0 Log CFU/mL
[2]; 0.7% with 0.0001% saponin microemulsion, Day 0, 316 SS
  Survivors of Salmonella Newport on food contact surface: 4.68 Log CFU/mL
[2]; 0.7% with 0.0001% saponin microemulsion, Day 0, Buna N
  Survivors of Salmonella Newport on food contact surface: 4.08 Log CFU/mL
[2]; 0.7% with 0.0001% saponin microemulsion, Day 0, HDPE
  Survivors of Salmonella Newport on food contact surface: 4.42 Log CFU/mL
[2]; 0.7% with 0.0001% saponin microemulsion, Day 0, PC
  Survivors of Salmonella Newport on food contact surface: 4.11 Log CFU/mL
[2]; 0.7% with 0.0001% saponin microemulsion, Day 0, PVC
  Survivors of Salmonella Newport on food contact surface: <1 Log CFU/mL
[2]; 0.7% with 0.0001% saponin microemulsion, Day 1, 304 SS
  Survivors of Salmonella Newport on food contact surface: 3.68 Log CFU/mL
[2]; 0.7% with 0.0001% saponin microemulsion, Day 1, 316 SS
  Survivors of Salmonella Newport on food contact surface: 3.0 Log CFU/mL
[2]; 0.7% with 0.0001% saponin microemulsion, Day 1, Buna N
  Survivors of Salmonella Newport on food contact surface: 3.24 Log CFU/mL
[2]; 0.7% with 0.0001% saponin microemulsion, Day 1, HDPE
  Survivors of Salmonella Newport on food contact surface: <1 Log CFU/mL
[2]; 0.7% with 0.0001% saponin microemulsion, Day 1, PC
  Survivors of Salmonella Newport on food contact surface: 3.29 Log CFU/mL
[2]; 0.7% with 0.0001% saponin microemulsion, Day 1, PVC
  Survivors of Salmonella Newport on food contact surface: <1 Log CFU/mL
[2]; 0.7% with 0.0001% saponin microemulsion, Day 3, 304 SS
  Survivors of Salmonella Newport on food contact surface: <1 Log CFU/mL
[2]; 0.7% with 0.0001% saponin microemulsion, Day 3, 316 SS
  Survivors of Salmonella Newport on food contact surface: <1 Log CFU/mL
[2]; 0.7% with 0.0001% saponin microemulsion, Day 3, Buna N
  Survivors of Salmonella Newport on food contact surface: <1 Log CFU/mL
[2]; 0.7% with 0.0001% saponin microemulsion, Day 3, HDPE
  Survivors of Salmonella Newport on food contact surface: <1 Log CFU/mL
[2]; 0.7% with 0.0001% saponin microemulsion, Day 3, PC
  Survivors of Salmonella Newport on food contact surface: <1 Log CFU/mL
[2]; 0.7% with 0.0001% saponin microemulsion, Day 3, PVC
  Survivors of Salmonella Newport on food contact surface: <1 Log CFU/mL
[2]; 1% with 0.0001% saponin microemulsion, Day 0, 304 SS
  Survivors of Salmonella Newport on food contact surface: <1 Log CFU/mL
[2]; 1% with 0.0001% saponin microemulsion, Day 0, 316 SS
  Survivors of Salmonella Newport on food contact surface: <1 Log CFU/mL
[2]; 1% with 0.0001% saponin microemulsion, Day 0, Buna N
  Survivors of Salmonella Newport on food contact surface: <1 Log CFU/mL
[2]; 1% with 0.0001% saponin microemulsion, Day 0, HDPE
  Survivors of Salmonella Newport on food contact surface: <1 Log CFU/mL
[2]; 1% with 0.0001% saponin microemulsion, Day 0, PC
  Survivors of Salmonella Newport on food contact surface: <1 Log CFU/mL
[2]; 1% with 0.0001% saponin microemulsion, Day 0, PVC
  Survivors of Salmonella Newport on food contact surface: <1 Log CFU/mL
[2]; 1% with 0.0001% saponin microemulsion, Day 1, 304 SS
  Survivors of Salmonella Newport on food contact surface: <1 Log CFU/mL
[2]; 1% with 0.0001% saponin microemulsion, Day 1, 316 SS
  Survivors of Salmonella Newport on food contact surface: <1 Log CFU/mL
[2]; 1% with 0.0001% saponin microemulsion, Day 1, Buna N
  Survivors of Salmonella Newport on food contact surface: <1 Log CFU/mL
[2]; 1% with 0.0001% saponin microemulsion, Day 1, HDPE
  Survivors of Salmonella Newport on food contact surface: <1 Log CFU/mL
[2]; 1% with 0.0001% saponin microemulsion, Day 1, PC
  Survivors of Salmonella Newport on food contact surface: <1 Log CFU/mL
[2]; 1% with 0.0001% saponin microemulsion, Day 1, PVC
  Survivors of Salmonella Newport on food contact surface: <1 Log CFU/mL
[2]; 1% with 0.0001% saponin microemulsion, Day 3, 304 SS
  Survivors of Salmonella Newport on food contact surface: <1 Log CFU/mL
[2]; 1% with 0.0001% saponin microemulsion, Day 3, 316 SS
  Survivors of Salmonella Newport on food contact surface: <1 Log CFU/mL
[2]; 1% with 0.0001% saponin microemulsion, Day 3, Buna N
  Survivors of Salmonella Newport on food contact surface: <1 Log CFU/mL
[2]; 1% with 0.0001% saponin microemulsion, Day 3, HDPE
  Survivors of Salmonella Newport on food contact surface: <1 Log CFU/mL
[2]; 1% with 0.0001% saponin microemulsion, Day 3, PC
  Survivors of Salmonella Newport on food contact surface: <1 Log CFU/mL
[2]; 1% with 0.0001% saponin microemulsion, Day 3, PVC
  Survivors of Salmonella Newport on food contact surface: <1 Log CFU/mL
